From ChEMBL document CHEMBL5149992, “Discovery, Optimization, and Evaluation of Quinazolinone Derivatives with Novel Linkers as Orally Efficacious Phosphoinositide-3-Kinase Delta Inhibitors for Treatment of Inflammatory Diseases” (J Med Chem, 2021)
Active and inactive are the calls of the source. The calls are words filed in the database; no cut-off is given here.

How the values were obtained:
[1] = molecular target: T1, Phosphatidylinositol 4,5-bisphosphate 3-kinase catalytic subunit delta isoform (Homo sapiens) (UniProt O00329); assay: Inhibition of PI3Kdelta (unknown origin) at 0.1 uM relative to control
T1 sequence (whole entry): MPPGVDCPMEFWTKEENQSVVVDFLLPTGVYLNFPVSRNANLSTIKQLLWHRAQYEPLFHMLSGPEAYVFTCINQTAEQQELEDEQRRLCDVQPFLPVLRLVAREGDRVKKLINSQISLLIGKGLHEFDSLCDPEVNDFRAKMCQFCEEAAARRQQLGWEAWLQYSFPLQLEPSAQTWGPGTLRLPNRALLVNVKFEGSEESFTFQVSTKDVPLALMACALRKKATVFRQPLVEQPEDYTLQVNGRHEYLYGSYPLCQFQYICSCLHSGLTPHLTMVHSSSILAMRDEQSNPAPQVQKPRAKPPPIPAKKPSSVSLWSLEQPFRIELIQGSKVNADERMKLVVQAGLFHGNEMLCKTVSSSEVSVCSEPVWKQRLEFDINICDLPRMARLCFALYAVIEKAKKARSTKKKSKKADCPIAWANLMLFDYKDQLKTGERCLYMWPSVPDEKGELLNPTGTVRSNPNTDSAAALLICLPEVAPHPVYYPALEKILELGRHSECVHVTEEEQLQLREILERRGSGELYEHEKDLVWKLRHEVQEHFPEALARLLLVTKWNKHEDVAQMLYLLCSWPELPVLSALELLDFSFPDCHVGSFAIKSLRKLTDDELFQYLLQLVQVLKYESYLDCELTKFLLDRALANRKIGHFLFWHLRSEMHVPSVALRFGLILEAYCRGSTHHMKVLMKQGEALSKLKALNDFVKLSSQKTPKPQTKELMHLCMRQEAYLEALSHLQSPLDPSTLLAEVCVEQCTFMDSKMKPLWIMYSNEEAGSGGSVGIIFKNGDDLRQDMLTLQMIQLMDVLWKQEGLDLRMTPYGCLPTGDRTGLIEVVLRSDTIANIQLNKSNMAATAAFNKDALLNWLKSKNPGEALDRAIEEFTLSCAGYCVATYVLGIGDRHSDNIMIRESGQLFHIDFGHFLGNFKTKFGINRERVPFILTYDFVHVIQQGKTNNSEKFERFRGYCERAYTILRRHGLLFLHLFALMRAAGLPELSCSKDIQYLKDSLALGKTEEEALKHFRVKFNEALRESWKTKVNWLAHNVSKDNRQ

[2] = molecular target: T2, Phosphatidylinositol 4,5-bisphosphate 3-kinase catalytic subunit delta isoform (Homo sapiens, UniProt O00329); assay: Inhibition of PI3Kdelta (unknown origin)
T2 sequence (O00329 whole entry): T1 sequence (whole entry)

[3] = molecular target: Phosphatidylinositol 4,5-bisphosphate 3-kinase catalytic subunit beta isoform (Homo sapiens, UniProt P42338); assay: Inhibition of PI3Kbeta (unknown origin)
[4] = molecular target: T1, Phosphatidylinositol 4,5-bisphosphate 3-kinase catalytic subunit delta isoform (Homo sapiens); assay: Inhibition of PI3Kdelta (unknown origin) at 0.1 uM using phosphatidylinositol as substrate incubated for 30 mins in presence of ATP by HTRF based assay relative to control
in vitro = settings: human, liver microsomes
[5] = molecular target: T1, Phosphatidylinositol 4,5-bisphosphate 3-kinase catalytic subunit delta isoform (Homo sapiens); assay: Inhibition of PI3Kdelta (unknown origin) at 0.01 uM using phosphatidylinositol as substrate incubated for 30 mins in presence of ATP by HTRF based assay relative to control
[6] = human, microsomes, 10 µM
[7] = molecular target: Phosphatidylinositol 4,5-bisphosphate 3-kinase catalytic subunit gamma isoform (Homo sapiens, UniProt P48736); assay: Inhibition of PI3Kgamma (unknown origin)
[8] = Toxicity in mouse at 100 mg/kg, po; type: organism-based; settings: in vivo
[9] = molecular target: Phosphatidylinositol 4,5-bisphosphate 3-kinase catalytic subunit alpha isoform (Homo sapiens, UniProt P42336); assay: Inhibition of PI3Kalpha (unknown origin)
[10] = molecular target: Phosphatidylinositol 4,5-bisphosphate 3-kinase catalytic subunit gamma isoform (Mus musculus, UniProt Q9JHG7); assay: Inhibition of PI3Kgamma in c5a-stimulated mouse RAW264.7 cells assessed as reduction in AKT phosphorylation at S473 residue incubated for 30 mins; type: cell-based
Mus musculus = assay: Antiarthritic activity in collagen-induced rheumatoid arthritis DBA1/J mouse model assessed as reduction in disease severity at 20 mg/kg, po qd measured once daily for 24 to 27 days; type: functional, organism-based; settings: time 24-27 day

Sequence of Phosphatidylinositol 4,5-bisphosphate 3-kinase catalytic subunit gamma isoform (Homo sapiens, UniProt P48736) (P48736 whole entry, canonical isoform): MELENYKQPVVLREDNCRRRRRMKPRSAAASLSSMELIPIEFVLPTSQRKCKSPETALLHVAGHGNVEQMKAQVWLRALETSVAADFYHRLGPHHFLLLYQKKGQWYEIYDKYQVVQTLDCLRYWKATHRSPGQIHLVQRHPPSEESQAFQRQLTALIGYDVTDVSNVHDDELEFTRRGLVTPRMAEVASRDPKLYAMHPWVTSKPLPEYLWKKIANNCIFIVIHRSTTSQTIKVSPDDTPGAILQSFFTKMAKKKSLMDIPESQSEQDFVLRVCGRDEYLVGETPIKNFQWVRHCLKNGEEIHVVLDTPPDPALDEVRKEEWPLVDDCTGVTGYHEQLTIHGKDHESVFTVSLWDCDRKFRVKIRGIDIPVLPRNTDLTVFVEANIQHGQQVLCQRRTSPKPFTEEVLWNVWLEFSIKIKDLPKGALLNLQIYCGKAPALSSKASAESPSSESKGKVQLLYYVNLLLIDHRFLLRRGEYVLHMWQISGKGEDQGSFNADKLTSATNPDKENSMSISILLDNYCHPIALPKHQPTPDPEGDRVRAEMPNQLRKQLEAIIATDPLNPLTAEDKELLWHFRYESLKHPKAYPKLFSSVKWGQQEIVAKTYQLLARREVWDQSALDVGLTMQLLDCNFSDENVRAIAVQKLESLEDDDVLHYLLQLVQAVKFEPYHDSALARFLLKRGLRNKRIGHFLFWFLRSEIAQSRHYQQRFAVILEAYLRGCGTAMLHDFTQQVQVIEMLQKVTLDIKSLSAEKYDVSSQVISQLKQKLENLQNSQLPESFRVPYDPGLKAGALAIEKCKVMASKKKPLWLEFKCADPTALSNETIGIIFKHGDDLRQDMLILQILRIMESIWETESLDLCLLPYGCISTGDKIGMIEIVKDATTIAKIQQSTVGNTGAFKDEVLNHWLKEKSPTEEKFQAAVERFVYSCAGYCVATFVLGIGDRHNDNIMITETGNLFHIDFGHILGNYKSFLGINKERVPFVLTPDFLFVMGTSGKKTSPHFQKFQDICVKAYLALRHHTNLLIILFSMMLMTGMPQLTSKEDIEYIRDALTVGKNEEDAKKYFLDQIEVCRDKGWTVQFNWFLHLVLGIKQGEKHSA
Sequence of Phosphatidylinositol 4,5-bisphosphate 3-kinase catalytic subunit beta isoform (P42338 whole entry, canonical isoform): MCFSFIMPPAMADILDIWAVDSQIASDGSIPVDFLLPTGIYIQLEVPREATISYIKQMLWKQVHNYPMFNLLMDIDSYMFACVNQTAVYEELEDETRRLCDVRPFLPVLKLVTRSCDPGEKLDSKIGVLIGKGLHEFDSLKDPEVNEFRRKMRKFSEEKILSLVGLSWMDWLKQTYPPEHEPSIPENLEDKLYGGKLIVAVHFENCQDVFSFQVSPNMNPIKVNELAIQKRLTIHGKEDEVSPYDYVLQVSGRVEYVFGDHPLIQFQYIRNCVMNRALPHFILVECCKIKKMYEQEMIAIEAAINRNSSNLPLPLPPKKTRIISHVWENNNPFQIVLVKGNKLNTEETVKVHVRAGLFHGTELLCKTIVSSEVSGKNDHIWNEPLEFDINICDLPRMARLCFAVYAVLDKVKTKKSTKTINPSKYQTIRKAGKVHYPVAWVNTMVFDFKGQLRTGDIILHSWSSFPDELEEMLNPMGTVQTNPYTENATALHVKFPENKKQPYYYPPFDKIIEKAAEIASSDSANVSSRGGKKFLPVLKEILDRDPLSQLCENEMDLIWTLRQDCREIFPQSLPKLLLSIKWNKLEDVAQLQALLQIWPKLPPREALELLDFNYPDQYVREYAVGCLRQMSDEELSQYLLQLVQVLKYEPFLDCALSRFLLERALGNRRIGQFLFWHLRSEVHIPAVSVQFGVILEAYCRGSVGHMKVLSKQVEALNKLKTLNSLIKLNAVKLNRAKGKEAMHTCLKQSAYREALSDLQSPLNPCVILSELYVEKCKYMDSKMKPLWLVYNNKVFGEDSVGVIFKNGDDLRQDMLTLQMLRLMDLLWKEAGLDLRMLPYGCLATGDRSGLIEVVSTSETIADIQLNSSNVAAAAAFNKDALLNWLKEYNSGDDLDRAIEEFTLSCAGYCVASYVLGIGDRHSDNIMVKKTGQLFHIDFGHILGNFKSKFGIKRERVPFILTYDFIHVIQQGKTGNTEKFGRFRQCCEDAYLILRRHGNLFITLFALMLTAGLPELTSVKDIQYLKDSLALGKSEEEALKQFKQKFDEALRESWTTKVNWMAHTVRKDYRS
Sequence of Phosphatidylinositol 4,5-bisphosphate 3-kinase catalytic subunit alpha isoform (P42336 whole entry, canonical isoform): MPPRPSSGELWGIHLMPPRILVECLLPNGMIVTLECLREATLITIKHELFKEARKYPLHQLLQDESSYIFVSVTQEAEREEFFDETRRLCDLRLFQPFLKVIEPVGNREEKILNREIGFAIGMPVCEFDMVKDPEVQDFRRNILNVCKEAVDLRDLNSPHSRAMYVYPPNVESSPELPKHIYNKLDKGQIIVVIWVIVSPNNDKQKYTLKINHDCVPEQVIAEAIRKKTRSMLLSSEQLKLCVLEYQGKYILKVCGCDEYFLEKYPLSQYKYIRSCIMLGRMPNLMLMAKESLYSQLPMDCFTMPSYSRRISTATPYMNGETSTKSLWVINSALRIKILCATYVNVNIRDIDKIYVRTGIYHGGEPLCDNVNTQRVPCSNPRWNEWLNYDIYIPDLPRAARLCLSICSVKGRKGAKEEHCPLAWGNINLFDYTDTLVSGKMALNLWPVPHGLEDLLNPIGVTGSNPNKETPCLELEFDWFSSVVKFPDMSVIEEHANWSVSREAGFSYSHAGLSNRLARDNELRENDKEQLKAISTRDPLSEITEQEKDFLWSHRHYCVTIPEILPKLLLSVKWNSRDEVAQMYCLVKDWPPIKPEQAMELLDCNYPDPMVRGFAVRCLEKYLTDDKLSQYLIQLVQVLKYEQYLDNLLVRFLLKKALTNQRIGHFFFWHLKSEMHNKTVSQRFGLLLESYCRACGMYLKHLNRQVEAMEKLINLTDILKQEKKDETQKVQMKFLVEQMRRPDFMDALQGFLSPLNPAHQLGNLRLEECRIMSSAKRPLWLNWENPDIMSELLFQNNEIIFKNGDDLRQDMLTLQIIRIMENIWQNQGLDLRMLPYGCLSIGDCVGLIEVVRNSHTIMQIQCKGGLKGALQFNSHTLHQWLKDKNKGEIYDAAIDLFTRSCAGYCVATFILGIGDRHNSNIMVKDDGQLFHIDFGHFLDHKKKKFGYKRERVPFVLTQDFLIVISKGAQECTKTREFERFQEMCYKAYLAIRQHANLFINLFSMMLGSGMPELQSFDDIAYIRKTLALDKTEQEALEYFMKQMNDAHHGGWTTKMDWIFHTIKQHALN
Sequence of Phosphatidylinositol 4,5-bisphosphate 3-kinase catalytic subunit gamma isoform (Mus musculus, UniProt Q9JHG7) (Q9JHG7 whole entry, canonical isoform): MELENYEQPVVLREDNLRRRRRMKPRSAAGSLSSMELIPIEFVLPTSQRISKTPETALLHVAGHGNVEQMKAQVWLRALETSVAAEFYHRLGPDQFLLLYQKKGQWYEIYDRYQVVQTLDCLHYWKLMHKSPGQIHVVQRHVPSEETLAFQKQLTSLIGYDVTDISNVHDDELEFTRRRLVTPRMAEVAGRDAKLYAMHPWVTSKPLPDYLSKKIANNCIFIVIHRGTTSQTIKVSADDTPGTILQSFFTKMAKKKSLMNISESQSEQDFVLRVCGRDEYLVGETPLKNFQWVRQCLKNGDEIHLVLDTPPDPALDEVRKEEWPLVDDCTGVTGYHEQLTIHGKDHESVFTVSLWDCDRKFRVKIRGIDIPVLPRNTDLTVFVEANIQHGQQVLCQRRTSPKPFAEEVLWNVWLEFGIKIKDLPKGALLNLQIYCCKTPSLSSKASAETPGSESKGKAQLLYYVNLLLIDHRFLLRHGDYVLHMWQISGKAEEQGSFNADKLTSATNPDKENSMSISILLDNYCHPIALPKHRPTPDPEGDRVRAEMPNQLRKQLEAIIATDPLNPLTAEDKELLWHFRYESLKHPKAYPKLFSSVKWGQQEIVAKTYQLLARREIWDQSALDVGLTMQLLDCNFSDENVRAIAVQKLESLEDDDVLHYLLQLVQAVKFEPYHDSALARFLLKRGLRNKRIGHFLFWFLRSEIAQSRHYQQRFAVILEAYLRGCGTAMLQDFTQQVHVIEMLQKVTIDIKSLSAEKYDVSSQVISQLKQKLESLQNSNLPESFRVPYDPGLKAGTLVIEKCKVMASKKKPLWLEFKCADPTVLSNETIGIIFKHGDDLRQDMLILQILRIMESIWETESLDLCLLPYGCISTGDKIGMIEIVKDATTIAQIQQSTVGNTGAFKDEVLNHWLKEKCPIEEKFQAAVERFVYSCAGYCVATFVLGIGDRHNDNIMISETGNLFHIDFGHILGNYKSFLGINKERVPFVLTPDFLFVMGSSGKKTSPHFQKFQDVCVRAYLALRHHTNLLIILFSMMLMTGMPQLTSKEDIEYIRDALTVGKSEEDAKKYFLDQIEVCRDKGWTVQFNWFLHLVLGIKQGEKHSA

| inhibition [1] | IC50 [2] | IC50 [3] | inhibition [4] | half-life at 60 h, 10 µM (in vitro) | inhibition [5] | CLH [6] | IC50 [7] | IC50 [9] | IC50 [10] | Structure (SMILES) | Activity [8] | Activity (Mus musculus) |
| --- | --- | --- | --- | --- | --- | --- | --- | --- | --- | --- | --- | --- |
| 5% | – | – | – | – | – | – | – | – | – | N#Cc1c(N)ncnc1N1[C@H](c2nc3cccc(Cl)c3c(=O)n2-c2cccc(OC(F)(F)F)c2)C[C@@H]2CCCC[C@@H]21 | – | – |
| – | 90 nM | > 1000 nM | 43% | 1.17 h | 10% | 19.8 mL/min/g | > 1000 nM | > 1000 nM | – | N#Cc1c(N)ncnc1N1[C@H](c2nc3cccc(Cl)c3c(=O)n2-c2ccccc2)C[C@@H]2CCCC[C@@H]21 | Non-Toxic | – |
| – | – | – | – | – | – | – | – | – | 1300 nM | CC[C@H](Nc1ncnc2[nH]cnc12)c1nc2cccc(F)c2c(=O)n1-c1ccccc1 [IDELALISIB] | – | Active |
| – | 33 nM | > 1000 nM | 60% | 2.82 h | 15% | 8.2 mL/min/g | > 1000 nM | > 1000 nM | – | N#Cc1c(N)ncnc1N1CC(F)(F)C[C@H]1c1nc2cccc(Cl)c2c(=O)n1-c1ccccc1 | Toxic | – |
